Assay [1] addresses human KEAP1 (N-term, residues 321-609) (Homo sapiens, UniProt Q14145). Nature of the assay: biochemical.
Assay [2] has as its system NQO1 mRNA in BEAS-2B cells. Put plainly: Beas2B NQO1 mRNA cell based assay. The arrangement: species or system human. The following applies: Homo sapiens, BEAS-2B, 24 h, 24 h compound treatment, increase in NQO1 mRNA vs vehicle (0.1% DMSO), read-out: EC50. The method, then:
Beas2B NQO1 mRNA Cell Based Assay
The up regulation of the NRF2 mediated gene NAD(P)H:quinone acceptor oxidoreductase 1 (NQO1) was measured using the following assay method: BEAS-2B cells (ATCC CRL-9609) were plated in 96-well clear plates at 20,000 cells/well in 75 μL of cell culture media and incubated overnight (37° C., 5% CO2). On day 2, 25 μL of compound or controls were added to the cells for 24 h. On day 3, the medium was aspirated from the plate and the Cells-to-CT™ 1-Step TaqMan® Kit (Ambion A25603) was used to perform expression analysis directly from cultured cells without RNA purification according to the manufacturer's instructions.
Briefly, cells were washed with ice cold PBS and 22.5 μL of room-temperature DNase/Lysis solution was added to the cells and incubated at room temperature for 5 minutes. To stop the reaction, 2.25 μL of stop solution was added to the cell lysate. The samples were diluted 1:5 using nuclease free water and 2.5 μL transferred into the PCR plate. Real-time PCR was performed using the C-1000 Thermal Cycler (Bio-Rad) using human beta actin as the internal control. The cDNA was amplified with a specific primer for NQO1 using the 1-step RT-PCR master mix (Ambion Cells-to-CT™ 1-Step TaqMan® Kit A25603). The primers/probes sets that were used for amplification of cDNA were obtained from TaqMan Gene Expression Assays (Applied Biosystems). The comparative CT (ΔΔCT) relative quantification method was used to calculate the relative mRNA level of the target gene NQO1 as described in the Applied Biosystems Chemistry Guide.

Data on 19 molecules can be found in US12098148B2, “Therapeutic compounds” (C4X Discovery Limited, priority 2018, dated 2024).

The IC50 is the concentration at which inhibition is half-maximal. Higher therefore signals weaker potency. A word on the EC50: it is the concentration that produces a half-maximal response.
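Throughout, for IC50: fluorescence polarization competition assay of Kelch domain binding to NRF2, 12-point 1:3 dilution series from 10 µM, read after 1 h at room temperature, floor 10 nM.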

Sequence of human KEAP1 (N-term, residues 321-609) (Q14145 321-609): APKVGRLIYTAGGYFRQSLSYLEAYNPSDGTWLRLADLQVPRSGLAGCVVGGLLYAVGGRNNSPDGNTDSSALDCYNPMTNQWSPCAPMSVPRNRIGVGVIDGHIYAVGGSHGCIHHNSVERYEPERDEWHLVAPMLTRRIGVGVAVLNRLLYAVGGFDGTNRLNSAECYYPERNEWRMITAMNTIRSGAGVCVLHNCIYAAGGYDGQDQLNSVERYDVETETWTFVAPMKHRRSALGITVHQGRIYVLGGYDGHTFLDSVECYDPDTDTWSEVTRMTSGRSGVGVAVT

With `Cc1nc(COc2ccc(Br)c3c2[C@@H](CN2Cc4ccccc4C2=O)N(C(=O)[C@@H]2CCCC[C@@H]2C(=O)O)CC3)no1` [Example 24, (1S,2R)-2-((S)-5-Bromo-8-((5-methyl-1,2,4-oxadiazol-3-yl)methoxy)-1-((1-oxoisoindolin-2-yl)methyl)-1,2,3,4-tetrahydroisoquinoline-2-carbonyl)cyclohexane-1-carboxylic acid], the IC50 in assay [1] came to 9.1 nM. Besides, the EC50 in assay [2] stood at 41 nM.

As for `Cn1cnc(COc2ccc(Br)c3c2[C@@H](CN2Cc4ccccc4C2=O)N(C(=O)[C@@H]2CCCC[C@@H]2C(=O)O)CC3)c1` [Example 25, (1S,2R)-2-((S)-5-Bromo-8-((1-methyl-1H-imidazol-4-yl)methoxy)-1-((1-oxoisoindolin-2-yl)methyl)-1,2,3,4-tetrahydroisoquinoline-2-carbonyl)cyclohexane-1-carboxylic acid 2,2,2-trifluoroacetic acid], in assay [1], half-maximal inhibition (IC50) required 15 nM. Besides, the EC50 in assay [2] was found to be 150 nM.

With `Cc1cc(COc2ccc(Br)c3c2[C@@H](CN2Cc4ccccc4C2=O)N(C(=O)[C@@H]2CCCC[C@@H]2C(=O)O)CC3)no1` [Example 26, (1S,2R)-2-((S)-5-Bromo-8-((5-methylisoxazol-3-yl)methoxy)-1-((1-oxoisoindolin-2-yl)methyl)-1,2,3,4-tetrahydroisoquinoline-2-carbonyl)cyclohexane-1-carboxylic acid], in assay [1], the IC50 came out at 14 nM. In addition, the EC50 in assay [2] came out at 58 nM.

On to `CCn1ncc(COc2ccc(Br)c3c2[C@@H](CN2Cc4ccccc4C2=O)N(C(=O)[C@@H]2CCCC[C@@H]2C(=O)O)CC3)n1` [Example 27, (1S,2R)-2-((S)-5-bromo-8-((2-ethyl-2H-1,2,3-triazol-4-yl)methoxy)-1-((1-oxoisoindolin-2-yl)methyl)-1,2,3,4-tetrahydroisoquinoline-2-carbonyl)cyclohexane-1-carboxylic acid], for which the 50% inhibitory concentration (IC50) in assay [1] came out at 8.3 nM. Also, in assay [2], the EC50 was 18 nM.

Take `Cc1cnc(COc2ccc(Br)c3c2[C@@H](CN2Cc4ccccc4C2=O)N(C(=O)[C@@H]2CCCC[C@@H]2C(=O)O)CC3)s1` [Example 28, (1S,2R)-2-((S)-5-Bromo-8-((5-methylthiazol-2-yl)methoxy)-1-((1-oxoisoindolin-2-yl)methyl)-1,2,3,4-tetrahydroisoquinoline-2-carbonyl)cyclohexane-1-carboxylic acid]: the midpoint of inhibition in assay [1], the IC50, lay at 14 nM. In assay [2], the EC50 was found to be 93 nM.

In turn, `Cn1ncnc1COc1ccc(Br)c2c1[C@@H](CN1Cc3ccccc3C1=O)N(C(=O)[C@@H]1CCCC[C@@H]1C(=O)O)CC2` [Example 29, (1S,2R)-2-((S)-5-Bromo-8-((1-methyl-1H-1,2,4-triazol-5-yl)methoxy)-1-((1-oxoisoindolin-2-yl)methyl)-1,2,3,4-tetrahydroisoquinoline-2-carbonyl)cyclohexane-1-carboxylic acid] had an IC50 in assay [1] of 16 nM. Further, the EC50 in assay [2] was determined as 100 nM.

In turn, `O=C(O)[C@H]1CCCC[C@H]1C(=O)N1CCc2c(Br)ccc(OCc3cccnn3)c2[C@H]1CN1Cc2ccccc2C1=O` [Example 30] yielded an IC50 in assay [1] of 9.2 nM. Also, in assay [2], the concentration for a half-maximal effect (EC50) came to 17 nM.

`O=C(O)[C@H]1CCCC[C@H]1C(=O)N1CCc2c(Br)ccc(OCc3cn(CC4CC4)nn3)c2[C@H]1CN1Cc2ccccc2C1=O` [Example 31, (1S,2R)-2-((S)-5-bromo-8-((1-(cyclopropylmethyl)-1 1,2,3-triazol-4-yl)methoxy)-1-((1-oxoisoindolin-2-yl)methyl)-1,2,3,4-tetrahydroisoquinoline-2-carbonyl)cyclohexane-1-carboxylic acid] had an IC50 in assay [1] of 4.5 nM. Moreover, in assay [2], the half-maximal effective concentration (EC50) stood at 8.5 nM.

Turning to `O=C(O)[C@H]1CCCC[C@H]1C(=O)N1CCc2c(Br)ccc(OCc3ccn4ccnc4c3)c2[C@H]1CN1Cc2ccccc2C1=O` [Example 32], the concentration for half-maximal inhibition (IC50) in assay [1] is 6 nM. The EC50 in assay [2] came to 75 nM.

Regarding `Cn1cnc2cc(COc3ccc(Br)c4c3[C@@H](CN3Cc5ccccc5C3=O)N(C(=O)[C@@H]3CCCC[C@@H]3C(=O)O)CC4)ccc21` [Example 33, (1S,2R)-2-((S)-5-bromo-8-((1-methyl-1H-benzo[d]imidazol-5-yl)methoxy)-1-((1-oxoisoindolin-2-yl)methyl)-1,2,3,4-tetrahydroisoquinoline-2-carbonyl)cyclohexane-1-carboxylic acid], the IC50 in assay [1] turned out to be 5.1 nM. Moreover, the concentration for a half-maximal effect (EC50) in assay [2] stood at 22 nM.

In assay [1], `Cn1cc(COc2ccc(Br)c3c2[C@@H](CN2Cc4ccccc4C2=O)N(C(=O)[C@@H]2CCCC[C@@H]2C(=O)O)CC3)nn1` [Example 34, (1S,2R)-2-((S)-5-bromo-8-((1-methyl-1H-1,2,3-triazol-4-yl)methoxy)-1-((1-oxoisoindolin-2-yl)methyl)-1,2,3,4-tetrahydroisoquinoline-2-carbonyl)cyclohexane-1-carboxylic acid] had an IC50 of 5 nM. Further, in assay [2], the EC50 was 3.3 nM.

Regarding `CC(C)n1cc(COc2ccc(Br)c3c2[C@@H](CN2Cc4ccccc4C2=O)N(C(=O)[C@@H]2CCCC[C@@H]2C(=O)O)CC3)nn1` [Example 35, (1S,2R)-2-((S)-5-Bromo-8-((1-isopropyl-1H-1,2,3-triazol-4-yl)methoxy)-1-((1-oxoisoindolin-2-yl)methyl)-1,2,3,4-tetrahydroisoquinoline-2-carbonyl)cyclohexane-1-carboxylic acid], the IC50 in assay [1] worked out at 9.9 nM. Also, the EC50 in assay [2] is 7.5 nM.

For `Cc1nnc(COc2ccc(Br)c3c2[C@@H](CN2Cc4ccccc4C2=O)N(C(=O)[C@@H]2CCCC[C@@H]2C(=O)O)CC3)o1` [Example 36, (1S,2R)-2-((S)-5-bromo-8-((5-methyl-1,3,4-oxadiazol-2-yl)methoxy)-1-((1-oxoisoindolin-2-yl)methyl)-1,2,3,4-tetrahydroisoquinoline-2-carbonyl)cyclohexane-1-carboxylic acid], in assay [1], the IC50 worked out at 11 nM. Also, the EC50 in assay [2] stood at 130 nM.

As to `COc1cc(COc2ccc(Br)c3c2[C@@H](CN2Cc4ccccc4C2=O)N(C(=O)[C@@H]2CCCC[C@@H]2C(=O)O)CC3)cc2nnn(C)c12` [Example 37, (1S,2R)-2-((S)-5-bromo-8-((7-methoxy-1-methyl-1H-benzo[d][1,2,3]triazol-5-yl)methoxy)-1-((1-oxoisoindolin-2-yl)methyl)-1,2,3,4-tetrahydroisoquinoline-2-carbonyl)cyclohexane-1-carboxylic acid], 13 nM corresponded to half-maximal inhibition in assay [1] (IC50). Besides, the EC50 in assay [2] amounted to 44 nM.

The molecule `Cn1nnc2cc(COc3ccc(Br)c4c3[C@@H](CN3Cc5ccccc5C3=O)N(C(=O)[C@@H]3CCCC[C@@H]3C(=O)O)CC4)ccc21` [Example 38, (1S,2R)-2-((S)-5-bromo-8-((1-methyl-1H-benzo[d][1,2,3]triazol-5-yl)methoxy)-1-((1-oxoisoindolin-2-yl)methyl)-1,2,3,4-tetrahydroisoquinoline-2-carbonyl)cyclohexane-1-carboxylic acid] had a concentration for half-maximal inhibition (IC50) in assay [1] of 9.3 nM. Besides, the half-maximal effective concentration (EC50) in assay [2] was 17 nM.

In turn, `Cn1cnc(COc2ccc(Br)c3c2[C@@H](CN2Cc4ccccc4C2=O)N(C(=O)[C@@H]2CCCC[C@@H]2C(=O)O)CC3)n1` [Example 39, (1S,2R)-2-((S)-5-bromo-8-((1-methyl-1H-1,2,4-triazol-3-yl)methoxy)-1-((1-oxoisoindolin-2-yl)methyl)-1,2,3,4-tetrahydroisoquinoline-2-carbonyl)cyclohexane-1-carboxylic acid] yielded an IC50 in assay [1] of 8.3 nM. The 50% effective concentration (EC50) in assay [2] was 45 nM.

Consider `CC(C)n1ccnc1COc1ccc(Br)c2c1[C@@H](CN1Cc3ccccc3C1=O)N(C(=O)[C@@H]1CCCC[C@@H]1C(=O)O)CC2` [Example 40, (1S,2R)-2-((S)-5-bromo-8-((1-isopropyl-1H-imidazol-2-yl)methoxy)-1-((1-oxoisoindolin-2-yl)methyl)-1,2,3,4-tetrahydroisoquinoline-2-carbonyl)cyclohexane-1-carboxylic acid], for which the half-maximal inhibitory concentration (IC50) in assay [1] is 9 nM. Further, in assay [2], the 50% effective concentration (EC50) is 94 nM.

Molecule `Cn1nnc(COc2ccc(Br)c3c2[C@@H](CN2Cc4ccccc4C2=O)N(C(=O)[C@@H]2CCCC[C@@H]2C(=O)O)CC3)c1C(F)F` [Example 41, (1S,2R)-2-((S)-5-bromo-8-((5-(difluoromethyl)-1-methyl-1H-1,2,3-triazol-4-yl)methoxy)-1-((1-oxoisoindolin-2-yl)methyl)-1,2,3,4-tetrahydroisoquinoline-2-carbonyl)cyclohexane-1-carboxylic acid] yielded an IC50 in assay [1] of 5.2 nM. Further, in assay [2], the half-maximal effective concentration (EC50) turned out to be 1.5 nM.

`CCn1cnnc1COc1ccc(Br)c2c1[C@@H](CN1Cc3ccccc3C1=O)N(C(=O)[C@@H]1CCCC[C@@H]1C(=O)O)CC2` [Example 42, (1S,2R)-2-((S)-5-bromo-8-((4-ethyl-4H-1,2,4-triazol-3-yl)methoxy)-1-((1-oxoisoindolin-2-yl)methyl)-1,2,3,4-tetrahydroisoquinoline-2-carbonyl)cyclohexane-1-carboxylic acid]: the midpoint of inhibition in assay [1], the IC50, lay at 7.9 nM. Moreover, the EC50 in assay [2] amounted to 18 nM.
